Columns and labels:
[1] = tested on: PpIX fluorescence in human forearm or leg skin areas (hair follicle vs epidermis); experiment: Macroscopic PpIX fluorescence imaging of skin after topical photosensitizer precursor; ratio r hair follicle/hairless epidermis; type: in vivo
Method: The photosensitizer precursors were formulated within standard excipients of the European Pharmacopoeia, namely unguentum leniens (UL) and unguentum hydrophilicum anionicum (UH); for some essays, the photosensitizer precursors were suspended either in pure glycerol (GLY) or in pure diethylene glycol monoethyl ether (DGME).
The formulations were administered topically on the forearm or the leg using the Tegaderm™ transparent dressing. This dressing enables the transport of water and oxygen according to the specifications of the manufacturer. This dressing was removed and the remaining formulation cleaned with pure ethanol just before the measurements performed at one single point in time. For the pharmacokinetic measurements, this dressing was removed after four hours. This removal of the Tegaderm™ during the remaining time course of the measurements induced negligible minimal alterations of the measurements due to the excellent transparency of this dressing at the wavelengths of interest.
A fluorescence imaging system illustrated by FIG. 9 was developed to assess the extent and level of PpIX production in “macroscopic” samples (parts of the human body such as: forearm, leg, back, etc.). As the goal is to assess the relative level of PpIX in the hair follicle of these samples, red light at 635 nm was chosen as PpIX fluorescence excitation wavelength. It is indeed well known that red light penetrates deeper in the cutaneous tissues than green and violet light, the later two wavelengths corresponding to larger PpIX absorption peaks (see the PpIX fluorescence excitation and emission spectra presented on the right side in FIG. 9).
As presented in the schematic diagram presented in FIG. 9, this fluorescence imaging system involves a modified 300 W D-light source 1 (Xe arc lamp from Storz, Tuttlingen, Germany) equipped with a red bandpass filter (635 nm, 20 nm FWHM; Chroma, USA). This fluorescence excitation light is coupled in a Storz 4 mm diameter light guide 2. The output of this light guide is imaged on the tissue sample 3 with a projection objective 4 (Nikon, Japan; AF Nikkor; 1:1.4 D/50 mm) to generate a homogenous spot of 2.5 cm in diameter with an irradiance of 2 mW/cm^2 at 635 nm. The distance between this projection objective 4 and the sample 3 is 25 cm. Therefore, the light beam illuminating the sample can be considered as parallel. The fluorescence is collected by another objective 5 (Fujinon, Japan; TV zoom lens; 1:1.2/12.5-75 mm; Type H6X12.5R-MD3) through a longpass filter 6 (Schott, Germany; RG665) and the image detected by a scientific CCD camera (752×582 pixels CF 8/1 Kappa, Gleichen, Germany) equipped 7 with an image intensifier (Proxifier BV 256-2FcZ-CH, Proxitronic, Bensheim, Germany). The images are captured by the 8-bits camera frame grabber and saved on the computer 8 with the “Kappa Imagebase-control” software. Image treatment is carried out using the IPLab imaging software. The spatial resolution of the complete setup has been measured with an USAF resolution target and the value we obtained in the sample plan is 3 lp/mm, the size of the image detected by the camera being 3×4 cm^2. A reference sample has been designed to enable a comparison of the relative fluorescence brightness between samples investigated at different times. This reference consists of a ruby disk (diameter: 12 mm; thickness: 1.02 mm; Type 8Sp3, Hans Stettler SA, Lyss, Switzerland) covered with a neutral density filter (T=2.27%) so that the signal obtained with this reference sample corresponds to the typical tissue fluorescence detected in our conditions.
The images were analyzed using the NIH image software. The method consisted in identifying the location of an area corresponding to: 1) one typical hair follicle and 2) epidermis presenting no skin appendages. The number of pixels involved in such an area was typically 100. […]

[2] = tested on: skin area (hairs, follicles, epidermis); experiment: Irradiation of treated skin areas at 635 nm: hair removal and skin reaction; type: in vivo, human; conditions: pure, applied 195 minutes; irradiated 200 minutes later, 30 J/cm^2 at 65 mW/cm^2 (FIG. 7A)
Method: The irradiation step of the skin areas treated by means of the various photosensitizer precursor compositions described above was conducted as follows: The irradiation of the skin was performed at 635 nm with an argon ion (Spectra-Physics, model 2020) pumped dye laser (Spectra-Physics, model 375B). The light was coupled in a frontal FD1 light distributor from Medlight SA (Ecublens, Switzerland). This distributor generated a uniform 2 cm in diameter spot. The typical irradiances and light doses were 60 to 130 mW/cm^2 and 30 to 130 J/cm^2, respectively. The irradiance was checked before and after all treatments. The light power delivered by the light distributor was determined using a power meter from Spectra-Physics (Model 407A, Mountain view, Calif., USA).
Thereafter, the skin was cleaned as indicated above. 15 minutes later, the skin area was irradiated with a light dose of 127 J/cm^2 at an irradiance of 127 mW/cm^2.
A first area was submitted to light irradiation after a waiting time equal to 200 minutes with a light dose of 61 J/cm^2 at an irradiance of 42.4 mW/cm^2. […] A second area was submitted to light irradiation 30 minutes after the end of drug administration. The light dose was 130 J/cm^2 at an irradiance of 56.6 mW/cm^2.
Thereafter, the skin was cleaned and irradiated 200 minutes later with a light dose of 30 J/cm^2 at an irradiance of 65 mW/cm^2.

skin area = conditions: applied 15 to 25 hours, pulsed red light, cited from earlier work
sheep = conditions: light irradiation about 8 to 10 hours later, 600 to 700 nm; cited from earlier work
[3] = three hours administration, 20% in DGME
[4] = three hours administration, 20% in glycerol

SMILES | kinetics of the hair follicle/epidermis fluorescence ratio ([1]; 20% in Unguentum Leniens, one volunteer, 0 to 1380 minutes (FIG. 10)) | ratio r (hair follicle/epidermis fluorescence) ([1]; pure, lower leg, 3 hours, normal skin temperature of 31° C.) | ratio r (hair follicle/epidermis fluorescence) ([1]; pure, lower leg, three hours at 41° C. (electric blanket)) | ratio r (hair follicle/epidermis fluorescence) [1, 3] | ratio r (hair follicle/epidermis fluorescence) [1, 4] | skin reaction one day after irradiation [2] | ratio r (fluorescence brightness hair follicle area / hairless epidermis area) ([1]; three hours after administration, in unguentum hydrophilicum) | hair removal (skin area; treatment repeated about 4 to 8 times) | duration of sunburn like side effects after an irradiation (skin area) [days] | side effects in treated skin areas of test animals (sheep) | wool growth (sheep)
COC(=O)CCC(=O)CN [m-ALA, methyl ester of ALA] | decreases rapidly during the first hours and tends to unity for longer times |  |  |  |  |  |  |  |  |  | 
CCOCCOCCOC(=O)CCC(=O)CN [ALA-DGME, diethylene glycol monoethyl ether 5-amino-levulinate] |  | 3.47 | 4.72 | 3.24 | 2.51 | a clear reaction selectivity between the skin areas around follicles and the epidermis in bulk |  |  |  |  | 
Cl.NCC(=O)CCC(=O)O [ALA, 5-amino-levulinic acid hydrochloride] |  |  |  | 2.21 | 1.62 |  | 1.46 | effective | 2 to 20 | edema, discoloration and crusting | significantly reduced
